{"source": "patent US20260015333A1", "about": "“COMPOUNDS AND METHODS FOR INHIBITION OF THE EVOLUTION OF […]” (priority 2022, published 2026)", "assay_type_in_all_cases": "cell-based", "key": {"[1]": {"test_system": "HeLa cells", "experiment": "Mammalian cell cytotoxicity (CellTox Green)", "details": "during the timeframe of the infection experiment", "description": "FIGS. 9A-9B depict the cytotoxicity of ARM-1 against indicated mammalian cell lines. FIG. 9A depicts toxicity reported from original Calibr screen data against HEK293T and HepG2 cell lines. FIG. 9B depicts toxicity determined using Promega CellTox reagents following 8 hours of exposure of HeLa, Caco-2, and HEK293 cells to varying concentrations of ARM-1. Relative fluorescent units (RFUs) reported relative to solvent and no substrate controls.\nCytotoxicity of ARM-1 against HeLa, Caco-2, and HEK293 cells was determined using CellTox Green Cytotoxicity Assay (Promega) according to manufacturer instructions. ARM-1 was diluted in DMSO and applied to the culture such that final concentrations of DMSO were less than 0.05%. Reported toxicity is relative to a DMSO only control. Cells were incubated with ARM-1 for 24 hours prior to addition of reporter dye. Fluorescence was read on a BioTek Synergy Neo plate reader."}, "[2]": {"test_system": "L. monocytogenes", "experiment": "Evolution assay of antibiotic resistance", "details": "100 μM ARM-1, rifampicin", "source_text": "(§1) FIGS. 4A-4C depict how ARM-1 inhibits the evolution of antibiotic resistance. FIG. 4A depicts the minimum inhibitory concentration of ARM-1 in E. coli and S. aureus. FIGS. 4B-4C depict the evolution of indicated species against (FIG. 4B) rifampicin and (FIG. 4C) trimethoprim in the presence of ARM-1. Heatmaps show median MIC over time. Concentrations are indicated to the right of each plot. Each strain and antibiotic is the result of at least 12 biological replicates. Concentration of ARM-1 used against L. monocytogenes, P. aeruginosa, and S. aureus is 100 μM. Concentration of ARM-1 used against S. typhimurium is 50 μM. Populations of bacteria are grown overnight in a series of increasing antibiotic concentrations, with or without ARM-1 present. The following day, the population from the highest tolerated concentration is re-challenged with higher concentrations of antibiotic. The median MIC is determined after each 24 hour growth period as the lowest concentration of antibiotic at which at least 50% growth impairment is observed compared to an untreated population. MIC fold change is reported as the change in MIC from the first day of growth to each subsequent day.\n(§2) Next, the effect of ARM-1 on the evolution of antibiotic resistance was examined. Genetic deletion of Mfd is known to reduce the rates and extent of resistance development in laboratory evolution experiments. Using an assay previously developed, the impact of ARM-1 was assessed on resistance development across diverse pathogens and in response to multiple classes of antibiotics. In these experiments, bacteria are challenged with increasing concentrations of antibiotic over a minimum of least 55 generations. Reduced resistance development in bacteria treated with ARM-1 was observed compared to those that were untreated, in all species and antibiotics tested. […] This pattern was also observed in P. aeruginosa, S. aureus, and L. monocytogenes, with ARM-1 treatment resulting in 80, […] reduction in resistance to rifampicin, respectively (FIG. 4B). […] Sequencing of relevant resistance loci over the course of treatment confirmed that these observations are due to genetic changes; many more resistance mutations arise in untreated populations compared to those treated with ARM-1 (Table 1). […] Furthermore, patient isolates of S. typhimurium, S. aureus, and P. aeruginosa which already carry resistance mutations to other antibiotics were used, and still observed a reduction in resistance development during experiments. […]\n(§3) Evolution experiments were performed for the indicated strains. […] Optical densities were subsequently measured in an Epoch2 microplate spectrophotometer (BioTek). […]"}, "[3]": {"test_system": "P. aeruginosa", "experiment": "Evolution assay of antibiotic resistance", "details": "100 μM ARM-1, rifampicin", "source_text": "as §1, §2, §3"}, "[4]": {"test_system": "S. aureus", "experiment": "Evolution assay of antibiotic resistance", "details": "100 μM ARM-1, rifampicin", "source_text": "as §1, §2, §3"}, "[5]": {"test_system": "S. typhimurium", "experiment": "Evolution assay of antibiotic resistance", "details": "challenged with rifampicin or trimethoprim, or phosphomycin; 50 μM ARM-1", "source_text": "as §1, §2, §3"}}, "data": [{"smiles": "Cc1cc(Br)ccc1-c1ccc(CNCCCN(C)C)o1", "note": "[ARM-1, N^1-((5-(4-bromo-2-methylphenyl)furan-2-yl)methyl)-N^3,N^3-dimethylpropane-1,3-diamine]", "values": [{"measurement": "cytotoxic effects on HeLa cells", "setting": "[1]", "result": "no cytotoxic effects"}, {"measurement": "reduction in resistance to rifampicin", "setting": "[2]", "result": 1000, "unit": "FOLD"}, {"measurement": "reduction in resistance to rifampicin", "setting": "[3]", "result": 80, "unit": "FOLD"}, {"measurement": "reduction in resistance to rifampicin", "setting": "[4]", "result": 800, "unit": "FOLD"}, {"measurement": "difference in median MIC fold change between untreated and treated", "setting": "[5]", "result": "≥ 100", "unit": "fold"}]}]}
